The text below walks through data of patent US8258177B2, “4-((phenoxyalkyl)thio)-phenoxyacetic acids and analogs” (Janssen Pharmaceutica, N.V., priority 2003, dated 2012).

Values joined by “and” are separate entries in the source; they are usually repeats but may differ in a detail not shown here. Equal entries are not always repeated.

The subject of the first experiment is differentiated THP-1 monocytes.
Test: not given
The following applies: cited from earlier work.
`Cc1cc(SCc2sc(-c3ccc(C(F)(F)F)cc3)nc2C)ccc1OCC(=O)O` [GW501516]: the “ABCA1 mRNA expression” value is listed as “induced ABCA1 mRNA expression” and the cholesterol efflux result is on record as “enhanced cholesterol efflux”.

A further experiment addresses T1, PPAR delta (Homo sapiens, UniProt Q03181).
T1 sequence (Q03181 211-441 limits assumed): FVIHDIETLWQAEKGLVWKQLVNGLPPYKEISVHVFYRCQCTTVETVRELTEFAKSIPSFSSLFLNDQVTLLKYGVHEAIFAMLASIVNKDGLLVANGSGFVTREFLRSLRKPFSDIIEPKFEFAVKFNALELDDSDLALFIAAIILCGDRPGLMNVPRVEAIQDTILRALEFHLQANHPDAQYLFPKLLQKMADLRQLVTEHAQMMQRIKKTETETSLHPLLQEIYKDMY
As to the kind of experiment: Transfection assay for PPAR receptors (PPAR-Gal4 / Gal4-Luciferase reporter in HEK293 cells). The format is cell-based. The following applies: HEK293 cells co-transfected with PPAR-Gal4 receptor and Gal4-Luciferase reporter; 24 hours; multiple values = multiple measurements; read-out: EC50 (PPAR delta). How it is done:
Transfection Assay Method for PPAR Receptors
HEK293 cells were grown in DMEM/F-12 Media supplemented with 10% FBS and glutamine (GIBCOBRL). The cells were co-transfected with DNA for PPAR-Gal4 (PPARα, γ or δ) receptor and Gal4-Luciferase Reporter using the DMRIE-C Reagent. On the following day, the medium was replaced with 5% Charcoal treated FBS growth medium. After six hours, cells were trypsinized and seeded at a density of 50,000 cell/well into 96 well plates and incubated overnight at 37° C. in a 5% CO2 incubator. Cells were then treated with test compounds or vehicle and incubated for 24 hours at 37° C. in a 5% CO2 incubator. Luciferase activity was assayed using the Steady-Glo Luciferase Assay Kit from Promega. […] Steady-Glo Luciferase Assay Kit was purchased from Promega Part# E254B.
In general terms: A reporter such as luciferase makes a cellular process visible.
Take `CCC(O)(COc1ccc(C(F)(F)F)cc1)CSc1ccc(OCC(=O)O)c(C)c1` (centres unmarked) [Compound 28, {4-[2-Hydroxy-2-(4-trifluoromethyl-phenoxymethyl)butylsulfanyl]-2-methyl-phenoxy}-acetic acid]: the EC50 worked out at 122 nM. On to `Cc1cc(SCC(COc2ccc(C(F)(F)F)cc2)=C(F)F)ccc1OCC(=O)O` [Compound 16, {4-[3,3-Difluoro-2-(4-trifluoromethyl-phenoxymethyl)-allylsulfanyl]-2-methyl-phenoxy}-acetic acid], for which the EC50 is 87.8 nM and 51.4 nM. For `CC(C)=C(COc1ccc(C(F)(F)F)cc1)CSc1ccc(OCC(=O)O)c(C)c1` [Compound 15, {2-Methyl-4-[3-methyl-2-(4-trifluoromethyl-phenoxymethyl)-but-2-enylsulfanyl]-phenoxy}-acetic acid], the EC50 was 22.7 nM and 22.1 nM. Turning to `C=C(COc1ccc(C(F)(F)F)cc1)COc1ccc(OCC(=O)O)c(C)c1` [Compound 29], the EC50 worked out at 249 nM. For the compound `C=C(COc1ccc(C(F)(F)F)cc1)CSc1ccc(CC(=O)O)cc1Cl` [Compound 22, {3-Chloro-4-[2-(4-trifluoromethyl-phenoxymethyl)-allylsulfanyl]-phenyl}-acetic acid], the EC50 was 28.9 nM and 68.3 nM. In the case of `C=C(COc1ccccc1)CSc1ccc(OCC(=O)O)c(C)c1` [Compound 3, [2-Methyl-4-(2-phenoxymethyl-allylsulfanyl)-phenoxy]-acetic acid], the EC50 came out at 711 nM. In the case of `C=C(COc1ccc(Cl)cc1)CSc1ccc(OCC(=O)O)c(C)c1` [Compound 5, {4-[2-(4-Chloro-phenoxymethyl)-allylsulfanyl]-2-methyl-phenoxy}-acetic acid], the EC50 was 79.2 nM and 51.8 nM. In the case of `Cc1cc(SCC(=Cc2cccc3ccccc23)COc2ccc(C(F)(F)F)cc2)ccc1OCC(=O)O` [Compound 19, {2-Methyl-4-[3-naphthalen-1-yl-2-(4-trifluoromethyl-phenoxymethyl)-allylsulfanyl]-phenoxy}-acetic acid], the EC50 was 67.7 nM and 49.7 nM. As for `C=C(COc1ccc(OC)cc1)CSc1ccc(OCC(=O)O)c(C)c1` [Compound 9, {4-[2-(4-Methoxy-phenoxymethyl)-allylsulfanyl]-2-methyl-phenoxy}-acetic acid], the EC50 is 216 nM. For the compound `C=C(COc1ccc(Cl)c(Cl)c1)CSc1ccc(OCC(=O)O)c(C)c1` [Compound 6, {4-[2-(3,4-Dichloro-phenoxymethyl)-allylsulfanyl]-2-methyl-phenoxy}-acetic acid], the EC50 is 56.6 nM and 42.9 nM. On the same count and under the same terms, with `CCCC(CCC)(COc1ccc(C(F)(F)F)cc1)CSc1ccc(OCC(=O)O)c(C)c1` [Compound 24, {2-Methyl-4-[2-propyl-2-(4-trifluoromethyl-phenoxymethyl)-pentylsulfanyl]phenoxy}-acetic acid] the figure was 9.7 nM and 7.4 nM; with `Cc1cc(SCC(F)(F)COc2ccc(C(F)(F)F)cc2)ccc1OCC(=O)O` [Compound 25, {4-[2,2-Difluoro-3-(4-trifluoromethyl-phenoxy)-propylsulfanyl]-2-methyl-phenoxy}-acetic acid], 147 nM. Take `C=C(COc1ccc(N(C)C)cc1)CSc1ccc(OCC(=O)O)c(C)c1` [Compound 10, {4-[2-(4-Dimethylamino-phenoxymethyl)-allylsulfanyl]-2-methyl-phenoxy}-acetic acid]: the EC50 came out at 238 nM. Take `Cc1cc(SCC2(COc3ccc(C(F)(F)F)cc3)COC(C)(C)O2)ccc1OCC(=O)O` (centres unmarked) [Compound 27, {4-[2,2-Dimethyl-4-(4-trifluoromethyl-phenoxymethyl)-[1,3]dioxolan-4-ylmethylsulfanyl]-2-methyl-phenoxy}-acetic acid]: the EC50 stood at 119 nM.

As to `C=C(COc1ccc(C(F)(F)F)cc1)CSc1ccc(OCC(=O)O)c(Cl)c1` [Compound 11, {2-Chloro-4-[2-(4-trifluoromethyl-phenoxymethyl)-allylsulfanyl]-phenoxy}-acetic acid], the EC50 was 45.1 nM and 48.3 nM. With `C=C(COc1ccc(Cl)cc1Cl)CSc1ccc(OCC(=O)O)c(C)c1` [Compound 7, {4-[2-(2,4-Dichloro-phenoxymethyl)-allylsulfanyl]-2-methyl-phenoxy}-acetic acid], the EC50 worked out at 138 nM. `C=C(CSc1ccc(OCC(=O)O)c(C)c1)Oc1ccc(C(F)(F)F)cc1` [Compound 21, {2-Methyl-4-[2-(4-trifluoromethyl-phenoxy)-allylsulfanyl]-phenoxy}-acetic acid]: the EC50 was > 1000 nM. As to `C=C(CCSc1ccc(OCC(=O)O)c(C)c1)Oc1ccc(C(F)(F)F)cc1` [Compound 20, {2-Methyl-4-[3-(4-trifluoromethyl-phenoxy)-but-3-enylsulfanyl]phenoxy}-acetic acid], the EC50 stood at 194 nM. Still for that read-out and setting: the value for `C=C(COc1ccc(OC(F)(F)F)cc1)CSc1ccc(OCC(=O)O)c(C)c1` [Compound 4, {2-Methyl-4-[2-(4-trifluoromethoxy-phenoxymethyl)-allylsulfanyl]-phenoxy}-acetic acid] was 29 nM and 27.8 nM; that for `Cc1cc(SCC(=CC#N)COc2ccc(C(F)(F)F)cc2)ccc1OCC(=O)O` [Compound 17, {4-[3-Cyano-2-(4-trifluoromethyl-phenoxymethyl)-allylsulfanyl]-2-methyl-phenoxy}-acetic acid] was 32.1 nM and 38.7 nM.

The same experiment, now with this note: value printed in running text after characterisation data; multiple values = multiple measurements; read-out: PPARdleta EC50.
Consider `C=C(COc1ccc(C(C)=O)c(O)c1CCC)CSc1ccc(OCC(=O)O)c(C)c1` [{4-[2-(4-acetyl-3-hydroxy-2-propyl-phenoxymethyl)-allylsulfanyl]-2-methyl-phenoxy}-acetic acid], for which the EC50 was 13 nM and 18 nM. Take `C=C(COc1ccc(C(F)(F)F)cc1)CSc1ccc(Cl)cc1OCC(=O)O` [[5-chloro-2-[[2-[[4-(trifluoromethyl)phenoxy]methyl]-2-propenyl]thio]phenoxy]-acetic acid]: the EC50 is > 3000 nM. Regarding `C=C(COc1ccc(C(F)(F)F)cn1)CSc1ccc(OCC(=O)O)c(C)c1` [[2-methyl-4-[[2-[[[5-(trifluoromethyl)-2-pyridinyl]oxy]methyl]-2-propenyl]thio]phenoxy]-acetic acid], the EC50 was > 3000 nM. Turning to `C=C(COc1ccc(C(F)(F)F)cc1)C[S+]([O-])c1ccc(OCC(=O)O)c(C)c1` (centres unmarked) [[2-methyl-4-[[2-[[4-(trifluoromethyl)phenoxy]methyl]-2-propenyl]sulfinyl]phenoxy]-acetic acid], the EC50 was > 3000 nM.
